Source: patent US5041567A, “Antibacterial monic acid derivatives” (Beecham Group plc, priority 1982, dated 1991)
In brackets after ≈: the same amount, converted by molar mass. Where two headings read alike, the source gives them in different places.

Tests used:
M. suipneumoniae NB12 = assay: MIC against mycoplasma in vitro; type: cell-based; conditions: Mesomycoplasma hyopneumoniae
M. suipneumoniae JF 435 = assay: MIC against mycoplasma in vitro; type: cell-based; conditions: Mesomycoplasma hyopneumoniae, JF435, 144 h
M. suipneumoniae Str. 11 = assay: MIC against mycoplasma in vitro; type: cell-based; conditions: Mesomycoplasma hyopneumoniae, STR.11, 144 h
M. suipneumoniae MS 16 = assay: MIC against mycoplasma in vitro; type: cell-based; conditions: Mesomycoplasma hyopneumoniae, MS16, 144 h
M. suipneumoniae UCD 1 = assay: MIC against mycoplasma in vitro; type: cell-based; conditions: Mesomycoplasma hyopneumoniae, UCD1, 144 h
M. suipneumoniae TAM 6N = assay: MIC against mycoplasma in vitro; type: cell-based; conditions: Mesomycoplasma hyopneumoniae, TAM6N, 144 h
[1] = system: M. suipneumoniae ATCC 25095; assay: MIC against mycoplasma in vitro; type: cell-based; conditions: Mesomycoplasma hyopneumoniae, ATCC25095, 144 h
[2] = system: M. suipneumoniae NCTC 10110; assay: MIC against mycoplasma in vitro; type: cell-based; conditions: Mesomycoplasma hyopneumoniae, NCTC10110, 144 h
M. hyorhinis ATCC 25021 = assay: MIC against mycoplasma in vitro; type: cell-based; conditions: Mesomycoplasma hyorhinis, ATCC25021, 144 h
[3] = system: M. bovigenitalium ATCC 14173; assay: MIC against mycoplasma in vitro; type: cell-based; conditions: 144 h
M. dispar NCTC 10125 = assay: MIC against mycoplasma in vitro; type: cell-based; conditions: 144 h
M. gallisepticum S6 = assay: MIC against mycoplasma in vitro; type: cell-based; conditions: Mycoplasmoides gallisepticum
E. coli NCTC 10418 [4] = assay: MIC against human bacteria in vitro; type: cell-based; conditions: Escherichia coli, NCTC10418; E. coli NCTC 10418; agar with 5% chocolated horse blood, 18 hours, 37° C.; read-out: MIC
P. mirabilis 889 = assay: MIC against human bacteria in vitro; type: cell-based; conditions: Proteus mirabilis; P. mirabilis 889; 5% chocolated horse blood agar, 18 hours; read-out: MIC
[5] = system: Ps. aeruginosa NCTC 10662; assay: MIC against human bacteria in vitro; type: cell-based; conditions: Pseudomonas aeruginosa, NCTC10662; Ps. aeruginosa NCTC 10662; 5% chocolated horse blood agar, 18 hours; read-out: MIC
[6] = system: Haemophilus influenzae Wy21; assay: MIC against human bacteria in vitro; type: cell-based
[7] = system: Neisseria catarrhalis 1502; assay: MIC against human bacteria in vitro; type: cell-based; conditions: Neisseria catarrhalis 1502; 5% chocolated horse blood agar, 18 hours; read-out: MIC
[8] = system: Corynebacterium xerosis 9755; assay: MIC against human bacteria in vitro; type: cell-based; conditions: Corynebacterium xerosis 9755; 5% chocolated horse blood agar, 18 hours; read-out: MIC
Staph. aureus Oxford = assay: MIC against human bacteria in vitro; type: cell-based; conditions: Staphylococcus aureus; Staph. aureus Oxford; 5% chocolated horse blood agar, 18 hours; read-out: MIC
Staph. aureus Russell = assay: MIC against human bacteria in vitro; type: cell-based; conditions: Staphylococcus aureus; Staph. aureus Russell; 5% chocolated horse blood agar, 18 hours; read-out: MIC
Staph. aureus W2827 = assay: MIC against human bacteria in vitro; type: cell-based; conditions: Staphylococcus aureus; Staph. aureus W2827; 5% chocolated horse blood agar, 18 hours; read-out: MIC
[9] = system: Strep. pyogenes R80/421-A; assay: MIC against human bacteria in vitro; type: cell-based; conditions: Streptococcus pyogenes; Strep. pyogenes R80/421-A; 5% chocolated horse blood agar, 18 hours; read-out: MIC
Strep. agalactiae 2788-B = assay: MIC against human bacteria in vitro; type: cell-based; conditions: Streptococcus agalactiae; Strep. agalactiae 2788-B; 5% chocolated horse blood agar, 18 hours; read-out: MIC
Strep. pneumoniae CN33 = assay: MIC against human bacteria in vitro; type: cell-based; conditions: Streptococcus pneumoniae; Strep. pneumoniae CN33; 5% chocolated horse blood agar, 18 hours; read-out: MIC
E. coli NCTC 10418 [10] = assay: MIC against veterinary bacteria in vitro; conditions: Escherichia coli, NCTC10418, 18 h
Method: (§1) The activity of the compounds of the Examples against various veterinarily important bacteria, was assayed in vitro using two-fold serial dilutions in Diagnostic Sensitivity Test Agar inoculated with 10^4 organisms.

E. coli E1 = assay: MIC against veterinary bacteria in vitro; conditions: Escherichia coli, E1, 18 h
Method: as §1

S. dublin S7 = assay: MIC against veterinary bacteria in vitro; conditions: Salmonella enterica, S7, 18 h
Method: as §1

Past. multocida PA1 = assay: MIC against veterinary bacteria in vitro; conditions: Pasteurella multocida, PA1, 18 h
Method: as §1

Past. multocida PA2 = assay: MIC against veterinary bacteria in vitro; conditions: Pasteurella multocida, PA2, 18 h
Method: as §1

Past. haemolytica PA5 = assay: MIC against veterinary bacteria in vitro; conditions: Mannheimia haemolytica, PA5, 18 h
Method: as §1

[11] = system: Staph. aureus 152 (pen. sens); assay: MIC against veterinary bacteria in vitro; conditions: Staphylococcus aureus, 18 h
Method: as §1

[12] = system: Strep. suis (group D) SPS11; assay: MIC against veterinary bacteria in vitro; conditions: Streptococcus suis, 18 h
Method: as §1

Strep. agalactiae SPA1 = assay: MIC against veterinary bacteria in vitro; conditions: Streptococcus agalactiae, SPA1, 18 h
Method: as §1

[13] = system: M. suipneumoniae PW/C/210; assay: MIC against mycoplasma in vitro; type: cell-based; conditions: Mesomycoplasma hyopneumoniae, 144 h

SMILES	MIC (M. suipneumoniae Str. 11) [µg/mL]	MIC (M. suipneumoniae MS 16) [µg/mL]	MIC (M. suipneumoniae TAM 6N) [µg/mL]	MIC [2] [µg/mL]	MIC (E. coli NCTC 10418 [4]) [µg/mL]	MIC (P. mirabilis 889) [µg/mL]	MIC [5] [µg/mL]	MIC [7] [µg/mL]	MIC [8] [µg/mL]	MIC (Staph. aureus Oxford) [µg/mL]	MIC (Staph. aureus Russell) [µg/mL]	MIC (Staph. aureus W2827) [µg/mL]	MIC [9] [µg/mL]	MIC (Strep. agalactiae 2788-B) [µg/mL]	MIC (Strep. pneumoniae CN33) [µg/mL]	MIC (E. coli NCTC 10418 [10]) [µg/mL]	MIC (E. coli E1) [µg/mL]	MIC (S. dublin S7) [µg/mL]	MIC (Past. multocida PA1) [µg/mL]	MIC (Past. multocida PA2) [µg/mL]	also measured
C/C(=C\c1cc(C)on1)C[C@@H]1OC[C@H](C[C@@H]2O[C@H]2[C@@H](C)[C@H](C)O)[C@@H](O)[C@H]1O [Example 33, 5-Methyl-3-(1-normon-2-yl) isoxazole A]	1 (≈ 2.62 µM)	1 (≈ 2.62 µM)	2.5 (≈ 6.55 µM)	2.5 (≈ 6.55 µM)	> 128	> 128	> 128	4 (≈ 10.5 µM)	> 128	8 (≈ 21 µM)	8 (≈ 21 µM)	8 (≈ 21 µM)	8 (≈ 21 µM)	64 (≈ 168 µM)	32 (≈ 83.9 µM)	> 80	> 80	> 80	1.3 (≈ 3.41 µM)	0.625 (≈ 1.64 µM)	MIC (M. suipneumoniae NB12; NB12, 144 h): 2.5 µg/mL (≈ 6.55 µM); MIC (M. suipneumoniae JF 435): 2.5 µg/mL (≈ 6.55 µM); MIC (M. suipneumoniae UCD 1): 1 µg/mL (≈ 2.62 µM); MIC [1]: 1 µg/mL (≈ 2.62 µM); MIC (M. hyorhinis ATCC 25021): 1 µg/mL (≈ 2.62 µM); MIC ([3]; M. bovigenitalium ATCC 14173, 6 days, 37° C., read-out: MIC): 0.5 µg/mL (≈ 1.31 µM); MIC (M. dispar NCTC 10125; M. dispar NCTC 10125, 6 days, 37° C., read-out: MIC): 0.5 µg/mL (≈ 1.31 µM); MIC (M. gallisepticum S6; 144 h, M. gallisepticum S6, 6 days, 37° C., read-out: MIC): > 10 µg/mL; MIC ([6]; Haemophilus influenzae, WY21, 18 h): 0.25 µg/mL (≈ 0.655 µM); MIC (Past. haemolytica PA5): 20 µg/mL (≈ 52.4 µM); MIC [11]: 2.5 µg/mL (≈ 6.55 µM); MIC [12]: > 80 µg/mL; MIC (Strep. agalactiae SPA1): 10 µg/mL (≈ 26.2 µM)
C/C(=C\c1ncc(-c2ccc(Br)cc2)o1)C[C@@H]1OC[C@H](C[C@@H]2O[C@H]2[C@@H](C)[C@H](C)O)[C@@H](O)[C@H]1O [Example 18, 5-p-Bromophenyl-2-(1-normon-2-yl) oxazole A]	0.25 (≈ 0.479 µM)	0.25 (≈ 0.479 µM)	1 (≈ 1.91 µM)	1 (≈ 1.91 µM)	> 128	> 128	> 128	4 (≈ 7.66 µM)	> 128	2 (≈ 3.83 µM)	8 (≈ 15.3 µM)	8 (≈ 15.3 µM)	2 (≈ 3.83 µM)	8 (≈ 15.3 µM)	4 (≈ 7.66 µM)	> 80	> 80	> 80	10 (≈ 19.1 µM)	1.25 (≈ 2.39 µM)	MIC (M. suipneumoniae NB12; 144 h, M. suipneumoniae NB12, Friis broth, 0.9% agarose, 6 days, 37° C., read-out: MIC): 0.5 µg/mL (≈ 0.957 µM); MIC (M. suipneumoniae JF 435; M. suipneumoniae JF 435, 6 days, 37° C., read-out: MIC): 0.5 µg/mL (≈ 0.957 µM); MIC [13]: 0.25 µg/mL (≈ 0.479 µM); MIC (M. suipneumoniae UCD 1; M. suipneumoniae UCD 1, 6 days, 37° C., read-out: MIC): 0.5 µg/mL (≈ 0.957 µM); MIC ([1]; M. suipneumoniae ATCC 25095, 6 days, 37° C., read-out: MIC): 0.5 µg/mL (≈ 0.957 µM); MIC (M. hyorhinis ATCC 25021; M. hyorhinis ATCC 25021, 6 days, 37° C., read-out: MIC): 0.5 µg/mL (≈ 0.957 µM); MIC [3]: 0.1 µg/mL (≈ 0.191 µM); MIC (M. dispar NCTC 10125): 0.25 µg/mL (≈ 0.479 µM); MIC (M. gallisepticum S6; S6, 144 h): 1 µg/mL (≈ 1.91 µM); MIC ([6]; Haemophilus influenzae Wy21, 5% chocolated horse blood agar, 18 hours, read-out: MIC): 4 µg/mL (≈ 7.66 µM); MIC (Past. haemolytica PA5): 40 µg/mL (≈ 76.6 µM); MIC [11]: 0.312 µg/mL (≈ 0.597 µM); MIC [12]: 10 µg/mL (≈ 19.1 µM); MIC (Strep. agalactiae SPA1): 0.625 µg/mL (≈ 1.2 µM)
